Publication PMC8375385, “In vitro Effect of Harmine Alkaloid and Its N-Methyl Derivatives Against Toxoplasma gondii” (Frontiers in Microbiology, 2021)
“Also recorded” adds a separate entry of the source. Read-outs that look alike come from different tables or passages of the source.

Columns and labels:
T. gondii γH2A.X = test: Western blot of γH2A.X in intracellular tachyzoites; assay type: cell-based, Toxoplasma gondii; conditions: 2 days; for γH2A.X levels: intracellular tachyzoites, CPT 10 μM or 3 7.5 μM alone
Method: Monolayers of hTERT cells grown in 12-well plates were infected with 5 × 10^6 tachyzoites of the RH Δhxgprt strain. After the invasion process, cells were washed with PBS and incubated with 3 (7.5 μM), CPT (10 μM), 3 (7.5 μM) plus CPT (10 μM), or the vehicle (DMSO), diluted in supplemented DMEM for 2 days. Then, infected cells were harvested by trypsinization, centrifuged, resuspended in PBS, and lysed by freeze–thaw cycling. Samples were resolved by SDS-PAGE (15%), and a western blot assay was conducted. Membranes were incubated (1 h, RT) with rabbit anti-T. gondii γH2A.X (1:500) ([Contreras et al., 2021]) and murine anti-SAG1 (Novus Biologicals, 1:500). Finally, they were washed several times with PBS-T and incubated with alkaline phosphatase-conjugated anti-rabbit or anti-mouse secondary antibodies, diluted to 1:4,000 (Santa Cruz Biotechnology). Immunoreactive protein bands were visualized by the NBT-BCIP (Promega) method. Densitometric analysis of scanned images was performed using the Image-Pro Plus software.

[1] = tested on: T. gondii RH RFP tachyzoites; test: Time of removal assay; assay type: cell-based, Toxoplasma gondii; conditions: for growth recovery after drug removal: followed up to 15 d.p.i.
[2] = tested on: T. gondii RH Δhxgprt tachyzoites; test: Invasion assay, pretreated extracellular tachyzoites; assay type: cell-based, Toxoplasma gondii; conditions: extracellular tachyzoites preincubated 1 h, 0 up to ∼50 μM, Vero cells
Method: Extracellular tachyzoites of RH Δhxgprt strain (2 × 10^6) were preincubated for 1 h (at 37°C and 5% CO2) with different doses of the assayed compounds (up to 40–50 μM) or the vehicle (DMSO) diluted in supplemented DMEM. Parasites were, then, centrifuged, resuspended in supplemented DMEM, and were allowed to invade Vero cell monolayers grown on coverslips in 24-well plates by incubation for 10 min on ice followed by 1 h at 37°C. Invasion assay was performed as described elsewhere ([Yañuk et al., 2017]). To facilitate counting, cells were analyzed by indirect immunofluorescence assay (IFA). Immunostaining was performed using anti-SAG1 mouse monoclonal (Novus Biologicals, 1:50)/goat anti-mouse Alexa Fluor 488 (Invitrogen, 1:4,000) antibodies. Fifty random fields per sample, with a similar number of host cells, were analyzed under microscope (Zeiss Axio Observer Colibri 7, magnification × 63). The number of parasitophorous vacuoles per field (PV/field) was counted. Data are presented as means of PV/field ± SEM. Two independent experiments were performed in duplicates.

[3] = tested on: T. gondii RH Δhxgprt tachyzoites; test: Tachyzoite cell cycle analysis by flow cytometry; assay type: cell-based, Toxoplasma gondii; conditions: infected hTERT fibroblasts, 2 days; 1–3 at 7.5 μM, SDZ at 500 μM
Method: Tachyzoites of the RH Δhxgprt strain (3 × 10^6) were added to hTERT cell monolayers grown into six-well plates. After invasion was allowed, the medium was changed, and infected cells were incubated for 2 days with 1, 2, and 3 (7.5 μM); SDZ (500 μM, positive control); or the vehicle (negative control), diluted in supplemented DMEM. Then, cells were detached using trypsin/EDTA solution and gently ruptured by successive passages through 27- and 30-gauge needles in order to obtain free parasites. Samples were centrifuged (2,000 rpm, 10 min), washed with PBS, fixed with 70% ethanol, and stored for 1 day at −20°C. Afterward, samples were processed and stained as described previously ([Munera Lopez et al., 2019]). At least 10,000 tachyzoites per sample were analyzed by flow cytometry measurements, carried out in a BD FACSCalibur equipment. Results were analyzed using FlowJo software 7.6. All assays were performed in duplicates, in two independent experiments.

topoisomerase I = tested on: topoisomerase I; parameters: method as in Cao et al., 2005; conditions: cell-free system, ref Cao et al., 2005, cited from earlier work
hTERT fibroblasts = test: MTT cytotoxicity on hTERT fibroblasts, 4 days; assay type: cell-based, human; conditions: 10 μM, 4 days
Method: (§1) The same assay was performed for hTERT fibroblasts, incubated for 4 days with different concentrations of 3. Absorbance was read at 540 nm (reference wavelength: 700 nm) in a plate reader (Synergy H1 Hybrid Reader, BioTek). Average absorbance from background wells (without cells, treated as the samples) was subtracted out, to obtain corrected values (A540 corr). The percentage of cell viability was calculated as follows:
(§2) Cellviability(%)=A540corrtreatedcells/A540corruntreatedcells×100
(§3) CC50 values were obtained by nonlinear regression analysis of cell viability (%) vs. log[compound] with a variable Hill’s slope, using the GraphPad Prism 5.03 software. Each concentration was assayed in triplicates, in three independent sets of experiments. To avoid effects of evaporation, outer wells were not used.

[4] = MTT cytotoxicity on hTERT fibroblasts, 4 days; assay type: cell-based, human; conditions: human, MTT, 4 days of incubation (Table 1 footnote b)
Method: as §1, §2, §3

[5] = tested on: T. gondii RH Δhxgprt tachyzoites; test: Replication assay (tachyzoites per PV); assay type: cell-based, Toxoplasma gondii; conditions: for increase of % PV with one parasite (% PV (1P)) vs control: 1-h-pretreated extracellular tachyzoites, 5–50 μM, 1 day of incubation without drug; for % PV (1P): intracellular tachyzoites in Vero cells, 7.5 μM, 2 days of incubation
Method: The effect of βCs on the replication process was evaluated on both extracellular and intracellular treated tachyzoites of the strain RH Δhxgprt. In the first case, the procedure followed was described above (see invasion assay), but after allowing the invasion, samples were washed with PBS and incubated for 1 day with supplemented DMEM (without drugs), before fixing and staining. To investigate βCs’ action on intracellular parasites, confluent Vero cells grown in 24-well plates were infected with 2 × 10^6 tachyzoites per well and treated for 2 days with different concentrations of the investigated drugs or the vehicle (DMSO) as negative control. Finally, they were fixed and immunolabeled as detailed previously. The number of tachyzoites per PV was analyzed under a microscope with × 63 magnification. At least 100 PVs selected at random were scored in triplicates, per compound dose, in two independent sets of experiments. Results are depicted as the mean percentage of PVs (% PV) that contained a geometric progression 2^n (with “n” being a natural number ≥ 0) of tachyzoites per PV ± SEM.

Vero cells = test: MTT cytotoxicity on Vero host cells, 2 days; conditions: Vero cells, 2 days of treatment (Table 1 footnote a)
[6] = MTT cytotoxicity on Vero host cells, 2 days; conditions: African green monkey (Cercopithecus aethiops), CC50, Vero cells, 2 days of treatment (Table 1 footnote a)
human topoisomerase II = tested on: human topoisomerase II; parameters: method as in Cao et al., 2005; conditions: 600 μM; ref Cao et al., 2005; cited from earlier work
[7] = tested on: T. gondii RH Δhxgprt tachyzoites; test: Plaque reduction assay; assay type: cell-based, Toxoplasma gondii
Method: Monolayers of hTERT fibroblasts grown into 24-well plates were infected with 1 × 10^4 tachyzoites per well of the RH Δhxgprt strain. Then, they were washed with PBS and treated with different concentrations of 3 or the vehicle (DMSO) diluted in supplemented DMEM. After 6.5 days of incubation, monolayers were washed, fixed with ethanol (70% v/v), and stained with crystal violet (Sigma). The IC50 value was obtained by nonlinear regression analysis of the number of plaques vs log[3] (variable Hill’s slope). The area of the plaques was analyzed by ImageJ software.

ctDNA = conditions: pH 7.4, cited from earlier work
[8] = tested on: T. gondii RH RFP tachyzoites; test: Lytic cycle growth assay (RFP fluorescence); assay type: cell-based, Toxoplasma gondii; conditions: for selectivity index (SI): CC50 hTERT 4 days / IC50 at 4 d.p.i.; for effect on tachyzoite growth: up to 10 μM, 3 d.p.i.; for IC50: Toxoplasma gondii, Fibroblast
[9] = tested on: T. gondii RH Δhxgprt tachyzoites; parameters: method as in Alomar et al. (2013); conditions: 1-h-pretreated extracellular tachyzoites, 25–40 μM, 1 day of incubation; ref Alomar et al. (2013); cited from earlier work
[10] = tested on: T. gondii RH Δhxgprt tachyzoites; parameters: method as in Alomar et al. (2013); conditions: extracellular tachyzoites preincubated 1 h, 0 up to ∼50 μM, Vero cells; ref Alomar et al. (2013); cited from earlier work
T. gondii RH strain = tested on: T. gondii RH strain; parameters: method as in not given; conditions: footnote text not given, ref not given, cited from earlier work
host cells = tested on: host cells; parameters: method as in not given; conditions: Table 1 footnote c, footnote text not given; ref not given; cited from earlier work
in vitro = conditions: African green monkey (Cercopithecus aethiops)
[11] = 72 h, RH RFP strain in hTERT fibroblasts, 3 d.p.i. (Table 1 footnote d), read-out: IC50 (converted)

| Compound | γH2A.X levels (T. gondii γH2A.X) | effect on invasion process (PV/field) [2] | effect on tachyzoite cell cycle (DNA content, G1 vs S/M) [3] | inhibition of topoisomerase I activity (topoisomerase I; 50 μM) | inhibition of topoisomerase I activity (topoisomerase I; 150 μM) | CC50 at 4 days [4] [µM] | increase of % PV with one parasite (% PV (1P)) vs control [5] | % PV (1P) [5] [%] | CC50 (Vero cells) [µM] | CC50 at 2 days ([6]; Vero cells (monolayers)) [µM] | inhibition of human topoisomerase II (human topoisomerase II) | selectivity index (SI) [8] | effect on tachyzoite growth ([8]; RH RFP in hTERT fibroblasts) | IC50 [8, 11] [µM] | IC50 (T. gondii RH strain; Table 1 footnote g) [µM] | also measured |
| --- | --- | --- | --- | --- | --- | --- | --- | --- | --- | --- | --- | --- | --- | --- | --- | --- |
| CC[C@@]1(O)C(=O)OCc2c1cc1n(c2=O)Cc2cc3ccccc3nc2-1 [CPT, camptothecin, reference compound] | notable increase |  |  |  |  |  |  |  |  |  |  |  |  |  |  |  |
| COc1ccc2c3ccnc(C)c3n(C)c2c1 [Compound 3, 9-methyl-harmine] | decreased basal levels | negligible or rather low effect | arrest in S/M phases; also recorded: significant enrichment in tachyzoite DNA content compatible with S/M phases | strongly decreases | inhibited | 31 | fivefold | 78 | 59 ± 8 | ~60 | do not inhibit | 17.2 | strong growth inhibition | 1.6 ± 0.2 |  | growth recovery after drug removal ([1]; 1.7 and 2 days of treatment, 7.5 μM): significant reduction of tachyzoite growth; growth recovery after drug removal ([1]; 1.7 and 2 days of treatment, 10 μM): total growth inhibition; growth recovery after drug removal ([1]; 0.7 days of treatment, 5, 7.5 and 10 μM): not effective; parasite growth under continuous treatment ([1]; continuous treatment up to 15 days, 5, 7.5 and 10 μM): complete inhibition of parasite growth; impact on fibroblast metabolism (MTT) (hTERT fibroblasts): no impact; γH2A.X levels when co-administered with CPT (T. gondii γH2A.X; 3 7.5 μM plus CPT 10 μM): reduced them significantly; parasite growth in plaque assay ([7]; 7.5 μM, 6.5 days, RH Δhxgprt): no parasite growth; IC50 ([7]; Toxoplasma gondii, Fibroblast, 156 h, read-out: IC50 (number of plaques)): 3.1 µM; overall binding constant to ctDNA (ctDNA; ref Vignoni et al., 2014): 16.8 ± 0.5 × 10^3 M^–1 in bp; IC50 ([8]; 96 h, RH RFP strain in hTERT fibroblasts, 4 d.p.i. (Table 1 footnote e), read-out: IC50 (converted)): 1.8 µM |
| COc1ccc2c(c1)[nH]c1c(C)nccc12 [Compound 1, harmine] |  |  | negligible or null effect | strongly decreases | inhibited | 49 |  | 65 | 57 ± 4 |  | do not inhibit | <5 | no major impact |  |  | change in % PV with two parasites (% PV (2P)) vs control [9]: sharp increase; effect on invasion process (PV/field) [10]: inhibited; CC50 at 2 days [6]: ~60 µM; overall binding constant to ctDNA (ctDNA; ref Yañuk et al., 2018): 7.7 ± 0.2 × 10^3 M^–1 in bp; IC50 ([8]; 72 h): > 10 µM; IC50 ([8]; 96 h): > 10 µM |
| Nc1ccc(S(=O)(=O)Nc2ncccn2)cc1 [SDZ, sulfadiazine, reference compound] |  |  |  |  |  |  |  |  |  | > 500 |  |  |  | ~500 | 2400 to 2800 | IC50 (T. gondii RH strain; Table 1 footnote h): 308 µM; decrease in RFU values with respect to untreated controls ([8]; SDZ 250 and 500 μM, RH RFP in hTERT fibroblasts): ~50% |
| CCc1nc(N)nc(N)c1-c1ccc(Cl)cc1 [Pyrimethamine, pyrimethamine] |  |  |  |  |  |  |  |  |  |  |  |  |  |  | 0.8 | IC50 (T. gondii RH strain; reported on RH strain, Table 1 footnote c): 3.4 µM; CC50 (host cells): > 40.2 µM |
| COc1ccc2c(c1)[nH]c1c(C)[n+](C)ccc12 [Compound 2, 2-methyl-harminium] |  | negligible or rather low effect | arrest in S/M phases; also recorded: significant enrichment in tachyzoite DNA content compatible with S/M phases |  |  |  | around fourfold | 68 |  |  |  |  | no major impact | > 10 |  | CC50 at 2 days (in vitro): > 500 µM; overall binding constant to ctDNA (ctDNA; ref Denofrio et al., 2020): 5.9 ± 0.3 × 10^3 M^–1 in bp |
